Measurements: patent US4038287A, “Compounds of allantoin with basic amino acids” (Kawaken Fine Chemicals Co., Ltd., priority 1975, dated 1977)
In brackets after ≈: the same amount, converted by molar mass.

Tests used:
Type in all cases: physicochemical
[1] = pH of a saturated solution in water
Description: Referring to the pH of a saturated solution obtained by dissolving the compounds of the present invention, respectively, in water, the solution pH of allantoin/arginine molecular compound was 8.5, that of allantoin/ornithine molecular compound was 9.0 and that of allantoin/lysine compound was 8.9. When the pH of the respective saturated solutions of compounds according to the invention was adjusted, with HCl solution, to the pH value of a saturated solution of pure allantoin in water, namely 5 to 6, and even though the saturated solutions of the compounds according to the invention contain a higher concentration of allantoin than that of a saturated solution of pure allantoin, no crystals of allantoin precipitated from the respective solutions of compounds according to the invention.

[2] = Dissolved amount of allantoin component of the compounds; settings: 20° C.
Description: (§1) The solubility of pure allantoin at room temperature is 0.6 wt. % in water, 1.0 wt. % in glycerol and 0.3 wt. % in 50 vol. % aqueous solution of ethyl alcohol. In contrast, the solubilities of the compounds of the present invention in the aforementioned solvents are shown in Table I. It will be understood from Table I that all compounds of the present invention can be dissolved to make present in the solution much more allantoin than can be obtained by dissolving allantoin, per se.
Also, comparing the dissolved amount of the allantoin component of the compounds according to the present invention and that allantoin, per se, the former is about fifteen times greater than that of allantoin, per se, and the effects of allantoin are thereby improved.

[3] = Solubility (wt.% at 20° C.) in water and alcohol-water solutions; settings: for solubility: water
Description: as §1
Solubility (wt.% at 20° C.)

physchem = test: physchem
Description: as §1

pH of a saturated solution in water [1]	Dissolved amount of allantoin component, 50% ethyl alcohol-water solution [2] [wt.%]	Dissolved amount of allantoin component, 50% isopropyl alcohol-water solution [2] [wt.%]	Dissolved amount of allantoin component, 50% methyl alcohol-water solution [2] [wt.%]	Dissolved amount of allantoin component, water [2] [wt.%]	Solubility in 50% ethyl alcohol-water solution [3] [wt.%]	Solubility in 50% isopropyl alcohol-water solution [3] [wt.%]	Solubility in 50% methyl alcohol-water solution [3] [wt.%]	solubility [3] [mg/mL]	Solubility of pure allantoin in 50 vol. % aqueous solution of ethyl alcohol (physchem) [wt. %]	Solubility of pure allantoin in glycerol (physchem) [wt. %]	solubility (physchem; water) [µg/mL]	Structure (SMILES)
8.5	9.4	4.6	20.2	28.2	19.8	9.9	43.3	603 (≈ 1810 mM)				N=C(NCCCC(N)C(=O)O)NC1(O)NC(=O)C(NC(N)=O)N1 (stereo not shown) [Allatoin/arginine (1:1) compound (A)]
9.0	6.7	3.6	14.3	22.1	12.3	6.6	26.2	405 (≈ 1400 mM)				NC(=O)NC1NC(O)(NCCCC(N)C(=O)O)NC1=O (stereo not shown) [Allantoin/ornithine compound (B)]
					0.3	0.1	0.5	6 (≈ 37.9 mM)	0.3	1.0	6000 (≈ 37.9 mM)	NC(=O)NC1NC(=O)NC1=O (stereo not shown) [Allantoin, allantoin]
8.9	5.0	2.5	11.3	15.6	9.6	4.8	21.7	300 (≈ 986 mM)				NC(=O)NC1NC(O)(NCCCCC(N)C(=O)O)NC1=O (stereo not shown) [Allantoin/lysine compound (C)]
